Like-named read-outs stand apart in the source and are kept apart here.
Assays:
[1] = test system: MDA-MB-231/ATCC; experiment: SRB 48 h growth assay, Breast MDA-MB-231/ATCC; assay type: cell-based, human
[2] = test system: HL-60(TB); experiment: SRB 48 h growth assay, Leukemia HL-60(TB); assay type: cell-based, human
[3] = test system: six leukemia cancer cell lines (CCRF-CEM, HL-60, K-562, MOLT-4, SR and RPMI-8226); experiment: in vitro anticancer activity, leukemia panel; assay type: cell-based; settings: Homo sapiens, exposure at least 48 h, read-out: GI50, range over panel
[4] = test system: NCI-H23; experiment: SRB 48 h growth assay, Non-small Cell Lung NCI-H23; assay type: cell-based, human
[5] = test system: A549/ATCC; experiment: SRB 48 h growth assay, Non-small Cell Lung A549/ATCC; assay type: cell-based, human
[6] = in vitro anticancer activity, non-small cell lung panel; assay type: cell-based; settings: Homo sapiens; nine non-small cell lung cancer cell lines, exposure at least 48 h; read-out: GI50, range over panel
[7] = in vitro anticancer activity, melanoma panel; assay type: cell-based; settings: Homo sapiens; nine melanoma cell lines, exposure at least 48 h; read-out: GI50, range over panel
[8] = test system: NCI-H522; experiment: SRB 48 h growth assay, Non-small Cell Lung NCI-H522; assay type: cell-based, human
[9] = test system: RXF393; experiment: SRB 48 h growth assay, Renal RXF393; assay type: cell-based, human
[10] = test system: MCF7; experiment: SRB 48 h growth assay, Breast MCF7; assay type: cell-based, human
[11] = test system: M14; experiment: SRB 48 h growth assay, Melanoma M14; assay type: cell-based, human
[12] = test system: RPMI-8226; experiment: SRB 48 h growth assay, Leukemia RPMI-8226; assay type: cell-based, human; settings: RPMI-8226, Leukemia
[13] = test system: TK-10; experiment: SRB 48 h growth assay, Renal TK-10; assay type: cell-based, human; settings: TK-10, Renal
[14] = test system: UACC-62; experiment: SRB 48 h growth assay, Melanoma UACC-62; assay type: cell-based, human; settings: UACC-62, Melanoma
[15] = test system: BT-549; experiment: SRB 48 h growth assay, Breast BT-549; assay type: cell-based, human; settings: BT-549, Breast
[16] = test system: HS578T; experiment: SRB 48 h growth assay, Breast HS578T; assay type: cell-based, human
[17] = test system: KM12; experiment: SRB 48 h growth assay, Colon KM12; assay type: cell-based, human
[18] = test system: SNB-19; experiment: SRB 48 h growth assay, CNS SNB-19; assay type: cell-based, human; settings: SNB-19, CNS
[19] = test system: PC-3; experiment: SRB 48 h growth assay, Prostate PC-3; assay type: cell-based, human; settings: PC-3, Prostate
[20] = test system: LOX IMVI; experiment: SRB 48 h growth assay, Melanoma LOX IMVI; assay type: cell-based, human
[21] = test system: OVCAR-8; experiment: SRB 48 h growth assay, Ovarian OVCAR-8; assay type: cell-based, human; settings: OVCAR-8, Ovarian
[22] = test system: MDA-MB-435; experiment: SRB 48 h growth assay, Melanoma MDA-MB-435; assay type: cell-based, human; settings: MDA-MB-435, Melanoma
[23] = test system: SNB-75; experiment: SRB 48 h growth assay, CNS SNB-75; assay type: cell-based, human; settings: SNB-75, CNS
[24] = test system: two prostate cancer cell line (PC-3, DU-145); experiment: in vitro anticancer activity, prostate panel; assay type: cell-based; settings: Homo sapiens; two prostate cancer cell lines, exposure at least 48 h; read-out: GI50, range over panel
[25] = test system: SK-MEL-5; experiment: SRB 48 h growth assay, Melanoma SK-MEL-5; assay type: cell-based, human; settings: SK-MEL-5, Melanoma
[26] = test system: HCT-116; experiment: SRB 48 h growth assay, Colon HCT-116; assay type: cell-based, human; settings: HCT-116, Colon
[27] = test system: CCRF-CEM; experiment: SRB 48 h growth assay, Leukemia CCRF-CEM; assay type: cell-based, human
[28] = test system: SW-620; experiment: SRB 48 h growth assay, Colon SW-620; assay type: cell-based, human; settings: SW-620, Colon
[29] = Homo sapiens, read-out: Growth Inhibition GI50
[30] = Homo sapiens, read-out: Log10 GI50 (converted)
[31] = Homo sapiens, read-out: Log10 LC50 (converted)

C#Cc1ccc(-n2c(/C=C/c3ccc(C(F)(F)F)cc3)nc3ncccc3c2=O)cc1 [4c, (E)-3-(4-Ethynylphenyl)-2-(4-(trifluoromethyl)styryl)pyrido[2,3-d]pyrimidin-4(3H)-one]
Log10 TGI50 [1]: −5.26
GI50 [1, 29]: 2050 nM
GI50 [1, 30]: 2040 nM
CC50 [1, 31]: 60.3 µM
Log10 TGI50 [2]: −5.22
GI50 [2, 29]: 2070 nM
GI50 [2, 30]: 2090 nM
CC50 [2, 31]: > 100 µM
GI50 [3]: 450 to 2430 nM
Log10 TGI50 [4]: −4.72
GI50 [4, 29]: 3.9 µM
GI50 [4, 30]: 3.89 µM
LC50 [4, 31]: > 100 µM
Log10 TGI50 [5]: −5.34
GI50 [5, 29]: 1830 nM
GI50 [5, 30]: 1820 nM
CC50 [5, 31]: > 100 µM
GI50 [6]: 1.63 to 7.45 µM
GI50 [7]: 510 to 4970 nM
Log10 TGI50 [8]: −5.51
GI50 [8, 29]: 1650 nM
GI50 [8, 30]: 1660 nM
CC50 [8, 31]: 5.75 µM
Log10 TGI50 [9]: −5.42
GI50 ([9]; Homo sapiens, RXF 393, read-out: Growth Inhibition GI50): 1790 nM
GI50 ([9]; Homo sapiens, RXF 393, read-out: Log10 GI50 (converted)): 1780 nM
CC50 ([9]; Homo sapiens, RXF 393, read-out: Log10 LC50 (converted)): 7.94 µM
Log10 TGI50 [10]: −4.99
GI50 [10, 29]: 2490 nM
GI50 [10, 30]: 2510 nM
CC50 [10, 31]: > 100 µM
Log10 TGI50 [11]: −5.37
GI50 [11, 29]: 2070 nM
GI50 [11, 30]: 2090 nM
CC50 [11, 31]: 8.71 µM
GI50 [12, 29]: 1390 nM
GI50 [12, 30]: 1380 nM
CC50 [12, 31]: > 100 µM
Log10 TGI50 [12]: −5.20
GI50 [13, 29]: 2190 nM
GI50 [13, 30]: 2190 nM
CC50 [13, 31]: 6.31 µM
Log10 TGI50 [13]: −5.43
GI50 [14, 29]: 1620 nM
GI50 [14, 30]: 1620 nM
CC50 [14, 31]: 7.94 µM
Log10 TGI50 [14]: −5.44
Log10 TGI50 [15]: −5.47
GI50 [15, 29]: 1710 nM
GI50 [15, 30]: 1700 nM
CC50 [15, 31]: 6.61 µM
Log10 TGI50 [16]: >−4.00
GI50 ([16]; Homo sapiens, Hs-578T, read-out: Growth Inhibition GI50): 3.46 µM
GI50 ([16]; Homo sapiens, Hs-578T, read-out: Log10 GI50 (converted)): 3.47 µM
CC50 ([16]; Homo sapiens, Hs-578T, read-out: Log10 LC50 (converted)): > 100 µM
Log10 TGI50 [17]: −5.46
GI50 [17, 29]: 1790 nM
GI50 [17, 30]: 1780 nM
CC50 [17, 31]: 6.61 µM
GI50 [18, 29]: 1910 nM
GI50 [18, 30]: 1910 nM
CC50 [18, 31]: 9.55 µM
Log10 TGI50 [18]: −5.37
GI50 [19, 29]: 1960 nM
GI50 [19, 30]: 1950 nM
CC50 [19, 31]: > 100 µM
Log10 TGI50 [19]: −5.20
Log10 TGI50 [20]: −5.37
GI50 [20, 29]: 1890 nM
GI50 [20, 30]: 1910 nM
CC50 [20, 31]: 9.77 µM
GI50 [21, 29]: 1870 nM
GI50 [21, 30]: 1860 nM
CC50 [21, 31]: 31.6 µM
Log10 TGI50 [21]: −5.33
GI50 [22, 29]: 2270 nM
GI50 [22, 30]: 2290 nM
CC50 [22, 31]: > 100 µM
Log10 TGI50 [22]: −5.19
GI50 [23, 29]: 1810 nM
GI50 [23, 30]: 1820 nM
CC50 [23, 31]: 28.2 µM
Log10 TGI50 [23]: −5.14
GI50 [24]: 2.35 to 7.45 µM
GI50 [25, 29]: 1490 nM
GI50 [25, 30]: 1480 nM
CC50 [25, 31]: 5.5 µM
Log10 TGI50 [25]: −5.54
Log10 TGI50 [26]: −5.52
GI50 [26, 29]: 1640 nM
GI50 [26, 30]: 1620 nM
CC50 [26, 31]: 5.62 µM
Log10 TGI50 [27]: >−4.00
CC50 ([27]; Homo sapiens, CCKF-CEM, read-out: Log10 LC50 (converted)): > 100 µM
GI50 [27, 29]: 1950 nM
GI50 [27, 30]: 1950 nM
GI50 [28, 29]: 1920 nM
GI50 [28, 30]: 1910 nM
CC50 [28, 31]: 7.41 µM
Log10 TGI50 [28]: −5.42

Source: patent publication US9783537B2, “3-(4-ethylnylphenyl) pyridopyrimidinone compounds and process for preparation thereof useful as potential anticancer agents” (Council of Scientific & Industrial Research, priority 2013, dated 2017)
